Results taken from US20240059712A1, “BIFUNCTIONAL COMPOUNDS AND PHARMACEUTICAL USES THEREOF” (priority 2022, published 2024).

Experiments:
KRAS^G12D protein = biological target: T1, KRAS^G12D protein (Homo sapiens, UniProt P01116, G12D); test: Protein degradation study (western blot) in Aspc-1 cells; assay type: cell-based; conditions: for inhibition at 0.005 µM / inhibition at 0.05 µM / inhibition at 0.001 µM: ASPC1, 24 h, 24 hours, read-out: Rate of degradation; for inhibition at 0.005 µM: Aspc-1 cells treated with 0.005 μM compound; for inhibition at 0.05 µM: Aspc-1 cells treated with 50 nM compound; for DC50: Aspc-1 cells, half-maximum degradation concentration, read-out: DC50 of compounds induced Ras G12D protein degradation; for inhibition at 0.001 µM: Aspc-1 cells treated with 1 nM compound
T1 construct: host or cells: Aspc-1 (AsPC-1) cells
Method: Aspc-1 (Cobioer, CBP60546) cells in exponential growth phase were inoculated on a 6-well cell culture plate (Corning, 3516) at density of 1E6/well; and cells in the plate were cultured in 37° C. incubator containing 5%-carbon dioxide. The next day, testing compounds were dissolved in DMSO (Sigma, RNBF5902) for the preparation of a 10-mM concentration stock solution. The stock solution was diluted with complete medium (RPMI-1640 supplemented with 10% fetal bovine serum, 1% penicillin-streptomycin), yielding working solutions of various concentrations. The plate, after the addition of compounds, was placed in a 5% carbon dioxide incubator, and incubated at 37° C. for 24 hours (final DMSO concentration was 0.1%). The plate was then removed from the incubator, and the cells were washed twice with precooled PBS (Gibco, 14190250), followed by addition of 80-μL RIPA lysis buffer (containing protease inhibitor (Invitrogen™, AM2696)) to each well. The adherent cells were scraped off with a cell scraper, and the cell lysate was transferred to a 1.5-mL centrifuge tube followed with a 30-minute incubation on ice. The lysate was then clarified with centrifugation at 14000 rpm for 10 min at 4° C. The supernatant was transferred into a new 1.5-mL centrifuge tube, and protein concentration was measured with BCA protein detection kit (Thermo Fisher, 23225). G12D protein level was assessed by western blot.
A mixture of cell lysate (40 μL) and loading buffer (10 μL, 5×SDS (Beyotime, P0015L)) was denatured in a water-bath at 95° C. for 10 min. The denatured protein sample, at 30 μL/well, was loaded into corresponding well of 4-20% Bis-Tris gel (Kingsley, M00656). Protein samples were initially electrophoresed at 80 V for 30 minutes, followed by 120 V for 40 minutes, until the bromophenol blue strip ran to an appropriate position. After electrophoresis, iBlot2 (Life Technologies, IB21001) was used to transfer the separated samples onto PVDF film. The PVDF membrane was washed with double-distilled water and then blocked in TBST (Thermo Scientific, 28360) buffer containing 5% non-fat milk, for 2 hours. Blocked membrane was rinsed with tris-buffered saline tween-20 (Thermo Scientific, 28360, TBST) three times, 10 minutes each. Membrane was then incubated with 1:1000 diluted KRAS primary antibody (CST, cat #14429S) overnight at 4° C. Membrane was rinsed in a way described previously followed by 1 hour incubation of secondary antibody at room temperature. After washing the film for three times with TBST, ECL color developing solution was applied, and image was captured with Biorad Chemi Doc gel imager. The band gray value was quantified (Image Lab), and protein degradation level was calculated according to the following formula:
Level of RAS protein expression=(RAS-compound/GAPDH)/(RAS-DMSO/GAPDH)
Level of degradation (%)=(1−Rate of RAS protein expression)×100
Symbols of −, +, ++, +++ indicate that the degradation level of Ras protein induced by testing compounds are […], 11 to 30%, 31 to 60% and greater than 60%, respectively.
Half-maximum degradation concentrations (DC50s) of testing compounds were calculated using GraphPad Prism and their values were shown in Table 6. Symbols of […] represent DC50s equal or less than 10 nM, 11-50 nM, 51-100 nM, and 101-200 nM, respectively.

Aspc-1 cells = test: Cell proliferation study (Cell Titer Glo, 72 hours); assay type: cell-based; conditions: Homo sapiens, ASPC1, read-out: IC50, inhibitory effect on cellular proliferation
Method: Aspc-1 (Cobioer, CBP60546) cells were grown in RPMI 1640 (Gibco, 61870127) supplemented with 10% fetal bovine serum (Gibco, 10099141), 1% penicillin-streptomycin (Gibco, 15070-063). Aspc-1 cells in exponential growth phase were seeded into 96-well plate (Corning, 3599) at density of 4×10^3/well. Cells were cultured overnight at 37° C. with 5% CO2. On the next day, cells were treated with compound at various concentrations for 72 hours in 37° C., 5% CO2 incubator (final DMSO concentration is 0.1%). After treatment, the cell plates were added 100 μL Cell Tier Glo (Promega, G7573) to every well and incubated at RT for 10 minutes. Cell growth status was measured with Cell Tier Glo (Promega, G7573) following manufacturer's directions. The inhibition curve was obtained with GraphPad 7.0 software using four-parameter equation.

T1 sequence (P01116 1-188 isoform P01116-2 G12D): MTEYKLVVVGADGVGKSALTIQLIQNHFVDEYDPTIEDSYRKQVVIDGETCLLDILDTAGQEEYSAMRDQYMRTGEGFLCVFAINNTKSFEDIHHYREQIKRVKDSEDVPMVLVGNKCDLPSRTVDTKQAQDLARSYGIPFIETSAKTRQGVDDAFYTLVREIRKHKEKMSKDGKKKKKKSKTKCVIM

Row | Compound | inhibition at 0.005 µM (KRAS^G12D protein) [%] | inhibition at 0.05 µM (KRAS^G12D protein) [%] | DC50 (KRAS^G12D protein) [nM] | IC50 (Aspc-1 cells) [nM] | inhibition at 0.001 µM (KRAS^G12D protein) [%]
1 | C#Cc1c(F)ccc2cc(O)cc(-c3ncc4c(N5CC6CCC(C5)N6)nc(OCC5(CN6CC7(CCC(N8CCC(c9ccc%10c(C%11CCC(=O)NC%11=O)nn(C)c%10c9)CC8)CC7)C6)CC5)nc4c3F)c12 (stereo not drawn) [Compound 31a] | > 60 | > 60 | < 10 | < 100 | 
2 | C#Cc1c(F)ccc2cc(O)cc(-c3ncc4c(N5CC6CCC(C5)N6)nc(OCC5(CN6CCC7(CC6)CC(N6CCC(c8ccc9c(N%10CCC(=O)NC%10=O)nn(C)c9c8)CC6)C7)CC5)nc4c3F)c12 [Compound 1a] | > 60 | > 60 | < 10 | < 100 | 
3 | C#Cc1c(F)ccc2cc(O)cc(-c3ncc4c(N5CC6CCC(C5)N6)nc(OCC5(CN6CCC7(CC6)CC(N6CCC(c8cc9c(cc8F)c(N8CCC(=O)NC8=O)nn9C)C(F)(F)C6)C7)CC5)nc4c3F)c12 (stereo not drawn) [Compound 37a] |  |  | < 10 | < 100 | 
4 | C#Cc1c(F)ccc2cc(O)cc(-c3ncc4c(N5CC6CCC(C5)N6)nc(OCC5(CN6CCC(N7CC(CN8CCC(c9ccc%10c(C%11CCC(=O)NC%11=O)nn(C)c%10c9)CC8)C7)CC6)CC5)nc4c3F)c12 (stereo not drawn) [Compound 30a] | > 60 | > 60 | < 10 | < 100 | 
5 | C#Cc1c(F)ccc2cccc(-c3ncc4c(N5CC6CCC(C5)N6)nc(OCC5(CN6CCC7(CC6)CC(N6CCC(c8ccc9c(C%10CCC(=O)NC%10=O)nn(C)c9c8)CC6)C7)CC5)nc4c3F)c12 (stereo not drawn) [Compound 16a] | > 60 | > 60 |  | 101 to 1000 | 
6 | Nc1cc(Cl)c(C(F)(F)F)c(-c2ncc3c(N4CC5CCC(C4)N5)nc(OCC4(CN5CCC6(CC5)CC(N5CCC(c7ccc8c9c(cccc79)C(=O)N8C7CCC(=O)NC7=O)CC5)C6)CC4)nc3c2F)c1 (stereo not drawn) [Compound 13a] | > 60 | > 60 | < 10 | < 100 | > 60
7 | C#Cc1c(F)ccc2cc(O)cc(-c3ncc4c(N5CC6CCC(C5)N6)nc(OCC5(CN6CCC7(CCC(CN8CCC(c9ccc%10c(C%11CCC(=O)NC%11=O)nn(C)c%10c9)CC8)CC7)CC6)CC5)nc4c3F)c12 (stereo not drawn) [Compound 26a] | > 60 | 11 to 30 | < 10 | < 100 | 
8 | C#Cc1c(F)ccc2cc(O)cc(-c3ncc4c(N5CC6CCC(C5)N6)nc(OCC5(CN6CCC7(CC6)CC(N6CCC(c8cc9c(cc8F)c(N8CCC(=O)NC8=O)nn9C)CC6)C7)CC5)nc4c3F)c12 [Compound 2a] | > 60 | > 60 | < 10 | < 100 | 
9 | C#Cc1c(F)ccc2cc(O)cc(-c3ncc4c(N5CC6CCC(C5)N6)nc(OCC5(CN6CCC7(CC6)CC(CN6CCC(c8ccc9c(C%10CCC(=O)NC%10=O)nn(C)c9c8)CC6)C7)CC5)nc4c3F)c12 (stereo not drawn) [Compound 29a] | > 60 | 11 to 30 | < 10 | < 100 | 
10 | C#Cc1c(F)ccc2cccc(-c3ncc4c(N5CC6CCC(C5)N6)nc(OCC5(CN6CCC7(CC6)CC(N6CCC(c8ccc9c%10c(cccc8%10)C(=O)N9C8CCC(=O)NC8=O)CC6)C7)CC5)nc4c3F)c12 (stereo not drawn) [Compound 14a] | > 60 | > 60 | < 10 | 101 to 1000 | > 60
11 | Cn1nc(N2CCC(=O)NC2=O)c2cc(F)c(C3CCN(C4CC5(CCN(CC6(COc7nc(N8CC9CCC(C8)N9)c8cc(Cl)c(-c9ccc(F)c%10sc(N)c(C#N)c9%10)c(F)c8n7)CC6)CC5)C4)CC3)cc21 [Compound 40a] | > 60 |  | < 10 | < 100 | 
12 | C#Cc1c(F)ccc2cc(O)cc(-c3ncc4c(N5CC6CCC(C5)N6)nc(OCC5(CN6CCC7(CC6)CC(C(=O)N6CCC(c8ccc9c(C%10CCC(=O)NC%10=O)nn(C)c9c8)CC6)C7)CC5)nc4c3F)c12 (stereo not drawn) [Compound 28a] | > 60 | > 60 | < 10 | < 100 | 
13 | Nc1cc(Cl)c(C(F)(F)F)c(-c2ncc3c(N4CC5CCC(C4)N5)nc(OCC4(CN5CCC6(CC5)CC(N5CCC(c7ccc(NC8CCC(=O)NC8=O)cc7F)CC5)C6)CC4)nc3c2F)c1 (stereo not drawn) [Compound 21a] | 31 to 60 | > 60 | < 10 | < 100 | 
14 | C#Cc1c(F)ccc2cc(O)cc(-c3ncc4c(N5CC6CCC(C5)N6)nc(OCC5(CN6CCC7(CC6)CC(N6CCC(c8ccc(NC9CCC(=O)NC9=O)cc8F)CC6)C7)CC5)nc4c3F)c12 (stereo not drawn) [Compound 12a] | > 60 | > 60 | < 10 | < 100 | > 60
15 | C#Cc1c(F)ccc2cc(O)cc(-c3ncc4c(N5CC6CCC(C5)N6)nc(OCC5(CN6CCC7(CCC(N8CCC(c9ccc%10c(C%11CCC(=O)NC%11=O)nn(C)c%10c9)CC8)CC7)CC6)CC5)nc4c3F)c12 (stereo not drawn) [Compound 33a] | > 60 | > 60 | < 10 | < 100 | 
16 | C#Cc1c(F)ccc2cc(O)cc(-c3ncc4c(N5CC6CCC(C5)N6)nc(OCC5(CN6CCC7(CCC(C(=O)N8CCC(c9ccc%10c(C%11CCC(=O)NC%11=O)nn(C)c%10c9)CC8)CC7)CC6)CC5)nc4c3F)c12 (stereo not drawn) [Compound 24a] | > 60 | 31 to 60 | < 10 | < 100 | 
17 | C#Cc1c(F)ccc2cc(O)cc(-c3ccc4c(N5CC6CCC(C5)N6)nc(OCC5(CN6CCC7(CC6)CC(N6CCC(c8ccc9c(C%10CCC(=O)NC%10=O)nn(C)c9c8)CC6)C7)CC5)nc4c3F)c12 (stereo not drawn) [Compound 23a] | > 60 | > 60 | < 10 | < 100 | 
18 | Cn1nc(C2CCC(=O)NC2=O)c2ccc(C3CCN(C4CC5(CCN(CC6(COc7nc(N8CC9CCC(C8)N9)c8cnc(-c9cc(N)cc(Cl)c9C(F)(F)F)c(F)c8n7)CC6)CC5)C4)CC3)cc21 (stereo not drawn) [Compound 17a] | > 60 | > 60 | < 10 | < 100 | 
19 | C#Cc1c(F)ccc2cc(O)cc(-c3ncc4c(N5CC6CCC(C5)N6)nc(OCC5(CN6CC7(CCC(CN8CCC(c9ccc%10c(C%11CCC(=O)NC%11=O)nn(C)c%10c9)CC8)CC7)C6)CC5)nc4c3F)c12 (stereo not drawn) [Compound 32a] | > 60 | 31 to 60 | < 10 | < 100 | 
